The results in this text go back to article PMC10610134, “Verubulin (Azixa) Analogues with Increased Saturation: Synthesis, SAR and Encapsulation in Biocompatible Nanocontainers Based on Ca^2+ or Mg^2+ Cross-Linked Alginate” (Pharmaceuticals, 2023).

Some results are limits rather than exact numbers.

For data set [1], the system named is microtubules in carcinoma A549 cells. Description: Immunofluorescent microscopy of microtubules. It counts as cell-based, human. As for the experimental part:
Since verubulin is known to stimulate microtubule disassociation, we performed an immunofluorescent microscopy study to determine the response of microtubule dynamics in carcinoma A549 cells to the treatment with representative compounds 2b,c,e. […] Aberrant cell morphology—contraction and rounding (Figure 2A,B) or contraction and elongation (Figure 2C)—was also observed.
A549 cells were seeded on coverslips (treated with poly-l-lysine at a concentration of 33 mg/L for an hour). Compounds were added up to the corresponding concentration after 24 h attachment and growth of the cells. Then, cells were incubated 24 h.
The cells were fixed with methanol (precooled in liquid nitrogen for 20 min), no additional permeabilization was performed. To prevent non-specific binding, cells were incubated with 4% BSA in PBS for one hour. Then, a solution of mouse monoclonal antibodies against alpha-tubulin cross-linked with Alexa 488 fluoroform (Thermo Fisher Scientific, Waltham, MA, USA, 32-2588) at a concentration of 5 μg/mL in 1% BSA solution in PBS was added to the cells, and the slides were incubated at +5 °C in a water chamber for 24 h. After the end of the incubation time, the cells were washed several times with PBS buffer solution and fixed on a glass slide with Moviol. Next day, cells were imaged with a ZEISS LSM 900 (ZEISS Microscopy, GmbH, Germany) and images processed with ImageJ.

In data set [2] the test system is immortalized lung fibroblast cell line VA13 (WI38 subline 2RA). Description: MTT cytotoxicity assay, VA13. The format is cell-based. The conditions noted are these: Homo sapiens, VA-13; 64 h treatment, MTT; read-out: IC50, nM VA13. From the text:
(§1) The obtained series of verubulin analogues 2a–r (which also included three by-products isolated in the reactions according to Scheme 2) were initially evaluated for cytotoxicity against commonly used human breast cancer cell line MCF7′ (fast-growth subclone), human lung epithelial carcinoma cell line A549 and etiologically non-cancer immortalized lung fibroblast cell line VA13 (WI38 subline 2RA). Cytotoxicity against immortalized human embryonic kidney cell line HEK293T, characterized by a high growth rate, was also studied regarding cytotoxicity against non-cancerous fast-growth cells. A standard MTT assay was performed; verubulin (1) served as a positive reference. The data obtained are presented in Table 1 (for dose–response curves, see Supplementary Materials).
(§2) Human breast cancer cell line MCF7′ and human lung adenocarcinoma cell line A549 were kindly provided by Dr. S. Dmitriev (Lomonosov Moscow State University), immortalized human fibroblast cell line VA13 (WI38 subline 2RA) was kindly provided by Dr. M. Rubtsova (Lomonosov Moscow State University), human embryonic kidney HEK293T cell line was kindly provided by Dr. E. Knyazhanskaya (Lomonosov Moscow State University). MCF7′, VA13, A549 and HEK293T cell lines were maintained in DMEM/F-12 (Thermo Fisher Scientific, Waltham, MA, USA) culture medium containing 10% fetal bovine serum (Thermo Fisher Scientific, Waltham, MA, USA) and 50 μg/mL penicillin and 0.05 mg/mL streptomycin at 37 °C (Thermo Fisher Scientific, Waltham, MA, USA) in 5% CO2. Cells were maintained at 37 °C in a humidified MCO-18AC incubator (Sanyo, Tokyo, Japan) supplied with 5% CO2. Cell cultures were tested for the absence of mycoplasma and validated by STR.
(§3) The cytotoxicity of the substances was tested using the 3-(4,5-dimethylthiazol-2-yl)2,5-diphenyl tetrazolium bromide (MTT) assay with some modifications. A total of 2500 cells per well for the MCF7′, HEK293T, A549 cell lines or 4000 cells per well for the VA-13 cell line were plated out in 135 μL of DMEM-F12 media (Gibco, Thermo Fisher Scientific, Waltham, MA, USA) in a 96-well plate and incubated in the 5% CO2 incubator for the first 20 h without treatment. Then, 15.8 μL of media–DMSO solutions of tested substances (final DMSO concentrations in the media were 0.5% or less) was added to the cells (triplicate each) and cells were treated for 64 h with 0.023 mg/L–50 mg/L (eight dilutions) of compounds 2f,n,o,r; 1.14 μg/L–2.5 mg/L (eight dilutions) of compounds 2a,b,d,g,h,k,l,p,q; 57.2 ng/L–125 μg/L (eight dilutions) of compounds 2e,i,j; 22.9 ng/L–50 μg/L (eight dilutions) of compounds 1,2c,m. Doxorubicin was used as a control substance. Then, the MTT reagent (Paneco LLC, Moscow, Russia) was added to cells up to a final concentration of 0.5 g/L (10 × stock solution in PBS was used) and incubated for 2 h at 37 °C in the incubator, under an atmosphere of 5% CO2. Then, the MTT solution was discarded, and 140 μL of DMSO (PharmaMed LLC, Moscow, Russia) was added. The plates were swayed on a shaker (120 rpm) to dissolve the formazan. The absorbance was measured using a microplate reader (VICTOR X5 Light Plate Reader, PerkinElmer, Waltham, MA, USA) at a wavelength of 555 nm (in order to measure formazan concentration). The results were used to construct dose–response graphs and to estimate IC50 values (IC50 is the concentration resulting in half of the maximal cytotoxic effect) with GraphPad Prism V, GraphPadSoftware, Inc., San Diego, CA, USA.
A general note: Tetrazolium dyes change colour on reduction, which living cells bring about.

The subject of data set [3] is immortalized human embryonic kidney cell line HEK293T. Description: MTT cytotoxicity assay, HEK293T. The following applies: HEK-293T, 64 h treatment, MTT, read-out: IC50, nM HEK293T. The format is cell-based.
Text: as §1, §2, §3

Data set [4] has as its system human breast cancer cell line MCF7′. Description: MTT cytotoxicity assay, MCF7′. The format is cell-based. The following applies: MCF7, 64 h treatment, MTT, read-out: IC50, nM MCF7′.
Text: as §1, §2, §3

Data set [5] has as its system human lung epithelial carcinoma cell line A549. Description: MTT cytotoxicity assay, A549. The format is cell-based. The following applies: A549, 64 h treatment, MTT, read-out: IC50, nM A549.
Text: as §1, §2, §3

Data set [6] deals with MCF7′, A549, VA13, HEK293T cell lines. Description: MTT cytotoxicity, SAR statements over the cell line panel. The following applies: for cytotoxicity, in words: MTT, 64 h. It counts as cell-based, human.
Text: as §1, §3

As a reminder, the IC50 is the concentration that gives 50% inhibition. One may read the melting point as the temperature, or range, at which the solid turns liquid.

As for `COc1ccc(/C=C\c2cc(OC)c(OC)c(OC)c2)cc1O` [CA-4, combretastatin A-4, reference compound], the “effect on microtubules (MTs)” value in data set [1] (0.03 μM, A549, positive control) is recorded as “full depolymerization of MTs”.
`Cc1ccc(N(C)c2nc(C)nc3c2CCCC3)cc1` [Compound 2b, N,2-Dimethyl-N-(4-methylphenyl)-5,6,7,8-tetrahydroquinazolin-4-amine] displayed a melting point of 91 to 92 °C. Besides, in data set [1] (10 μM, 24 h, A549), the “effect on microtubules (MTs)” value is listed as “depolymerization of MTs”. For the same compound, in data set [1] (5–10 μM, 24 h, A549), the effect on microtubules result is “pronounced or complete disruption of microtubules”. For the same compound, in data set [2], the IC50 was found to be 62 ± 8 nM. For the same compound, the IC50 in data set [3] was determined as 89 ± 3 nM. Moreover, the IC50 in data set [4] was determined as 97 ± 7 nM. Further, in data set [5], the half-maximal inhibitory concentration (IC50) stood at 110 ± 8 nM.
In turn, `Cc1nc2c(c(N3CCCc4ccccc43)n1)CCCC2` [Compound 2d, 4-(3,4-Dihydroquinolin-1(2H)-yl)-2-methyl-5,6,7,8-tetrahydroquinazoline] registered a melting point of 118 to 119 °C. The IC50 in data set [2] was 3000 ± 700 nM. Besides, in data set [3], the concentration for half-maximal inhibition (IC50) amounted to 7300 ± 1200 nM. The IC50 in data set [4] was found to be 9100 ± 2200 nM. Further, the IC50 in data set [5] turned out to be 12600 nM.
Regarding `Cc1nc2c(c(N3CCCc4ccc([N+](=O)[O-])cc43)n1)CCCC2` [Compound 2f, 2-Methyl-4-(7-nitro-3,4-dihydroquinolin-1(2H)-yl)-5,6,7,8-tetrahydroquinazoline], the melting point was in the range of 184 to 185 °C. Moreover, the IC50 in data set [2] is over 50000 nM. Further, in data set [3], the IC50 was over 50000 nM. Moreover, the IC50 in data set [4] is over 50000 nM. Moreover, the “cytotoxicity, in words” value in data set [6] was “inactive”. In data set [5], the IC50 is over 50000 nM.
`CN(c1ccccc1)c1nc(N)nc2c1CCCC2` [Compound 2g, N^4-Methyl-N^4-phenyl-5,6,7,8-tetrahydroquinazolinyl-2,4-diamine] yielded a melting point of 128 to 129 °C. In addition, in data set [2], the IC50 came out at 26900 nM. Moreover, the IC50 in data set [3] is 26300 nM. For the same compound, in data set [4], the IC50 was 28600 nM. Further, in data set [6] (2a vs. 2c, 2g vs. 2i), the “reduction of cytotoxicity on removal of para-methoxy substituent” value is 2–3 orders of magnitude. Further, the IC50 in data set [5] was 36400 nM.
In the case of `Cc1ccc(N(C)c2nc(N)nc3c2CCCC3)cc1` [Compound 2h, N^4-Methyl-N^4-(4-methylphenyl)-5,6,7,8-tetrahydroquinazolinyl-2,4-diamine], the melting point fell in the range of 135 to 136 °C. Besides, the IC50 in data set [2] came to 150 ± 14 nM. Moreover, the IC50 in data set [3] was found to be 170 ± 18 nM. In addition, in data set [4], the IC50 turned out to be 210 ± 15 nM. Moreover, the IC50 in data set [5] is 310 ± 23 nM.
For the compound `COc1ccc(N(C)c2nc(C)nc3c2CCCCC3)cc1` [Compound 2k, N-(4-Methoxyphenyl)-N,2-dimethyl-6,7,8,9-tetrahydro-5H-cyclohepta[d]pyrimidin-4-amine], the melting point was in the range of 92 to 93 °C. Moreover, in data set [2], the IC50 is 22 ± 6 nM. The IC50 in data set [3] came out at 39 ± 6 nM. The IC50 in data set [4] is 53 ± 7 nM. Further, the “selectivity towards tumor cells” value in data set [6] (pair A549/VA13) is recorded as “no selectivity”. Further, in data set [6] (ring B enlarged to seven-membered), the “reduction of cytotoxicity relative to 2c” value is recorded as “more than 10 times”. The IC50 in data set [5] stood at 79 ± 10 nM.
For `COc1ccc2c(c1)CCCN2c1nc(C)nc2c1CCCCC2` [Compound 2l, 4-(6-Methoxy-3,4-dihydroquinolin-1(2H)-yl)-2-methyl-6,7,8,9-tetrahydro-5H-cyclohepta[d]pyrimidine], the melting point fell in the range of 122 to 123 °C. The IC50 in data set [2] was determined as 260 ± 80 nM. Further, in data set [3], the IC50 was 450 ± 100 nM. In addition, the IC50 in data set [4] worked out at 360 ± 70 nM. Also, the “activity relative to 2k” value in data set [6] (conformational restriction of 2k) is on record as “seven to twelve times less active”. The IC50 in data set [5] turned out to be 790 ± 19 nM.
With `COc1ccc(N(C)c2nc3c(c(N(C)c4ccc(OC)cc4)n2)CCCC3)cc1` [Compound 2n, N,N′-bis(4-methoxyphenyl)-N,N′-dimethyl-5,6,7,8-tetrahydroquinazolin-2,4-diamine], the IC50 was 2290 ± 160 nM in data set [2], 1720 ± 68 nM in data set [3], 2500 ± 140 nM in data set [4] and 3270 ± 290 nM in data set [5]. In addition, in data set [6], the “cytotoxicity, in words” value was “moderately cytotoxic”.
`COc1ccc2c(c1)CCCN2c1nc(O)nc2c1CCCC2` [Compound 2o, 2-Hydroxy-4-(6-methoxy-3,4-dihydroquinolin-1(2H)-yl)-5,6,7,8-tetrahydroquinazoline]: the IC50 in data set [2], in data set [3], in data set [4] and in data set [5] was over 50000 nM each time. Further, the “cytotoxicity, in words” value in data set [6] was “complete loss of cytotoxicity”.
Take `COc1ccc2c(c1)CCCN2c1nc2c(c(N3CCCc4cc(OC)ccc43)n1)CCCC2` [Compound 2p, 2,4-Bis(6-methoxy-3,4-dihydroquinolin-1(2H)-yl)-5,6,7,8-tetrahydroquinazoline]: the IC50 in data set [2] amounted to 290 ± 74 nM; in data set [3], 510 ± 33 nM; in data set [4], 660 ± 150 nM; in data set [5], 640 ± 76 nM. Besides, the “cytotoxicity, in words” value in data set [6] was “moderately cytotoxic”.
Regarding `COc1ccc2c(c1)CCCN2c1nc(OC(C)C)nc2c1CCCC2` [Compound 2q, 2-Isopropoxy-4-(6-methoxy-3,4-dihydroquinolin-1(2H)-yl)-5,6,7,8-tetrahydroquinazoline], the IC50 came out at 160 ± 20 nM in data set [2], 250 ± 11 nM in data set [3], 310 ± 22 nM in data set [4] and 360 ± 34 nM in data set [5]. Further, in data set [6], the “cytotoxicity, in words” value is “largely restored”.
Consider `COc1ccc2c(c1)CCCN2c1nc2c(c(OC(C)C)n1)CCCC2` [Compound 2r, 4-Isopropoxy-2-(6-methoxy-3,4-dihydroquinolin-1(2H)-yl)-5,6,7,8-tetrahydroquinazoline], for which the half-inhibitory concentration (IC50) is 118000 nM in data set [2], 53500 nM in data set [3], 24200 nM in data set [4] and 23800 nM in data set [5]. Also, the “cytotoxicity, in words” value in data set [6] is “moderately cytotoxic”.
